Where two headings read alike, the source gives them in different places. One block for each compound: values may come before it.
Columns and labels:
[1] = Half-life of adrenalone diesters (R methyl, R1 = R2); format: in vitro ADME; conditions: R is methyl, medium not stated, read-out: half-life (t1/2)
From the text: Further, it should be noted that R is preferrably methyl.

[2] = Ocular distribution after topical administration of the diester; format: in vivo; conditions: after topical administration of compound of Formula I (formed by hydrolysis / reduction-hydrolysis)
From the text: Thus, topical adminstration of a compound of Formula I to the eye of an animal effectively induces pupil diameter enlargement and lowers intraocular pressure for a limited duration as a novel type of site-specific delivery system for epinephrine without the concomitant appearance of any significant undesirable side-effects associated with the prior art.

[3] = test system: eye; conditions: topical, prolonged usage; cited from earlier work
[4] = test system: eye; conditions: cited from earlier work; for ocular sympathomimetic activity: in vivo; for potency relative to dipivalyl epinephrine: on a molar basis
[5] = test system: eye; conditions: in vivo; cited from earlier work
[6] = test system: intraocular pressure; conditions: cited from earlier work
[7] = test system: glaucoma; conditions: cited from earlier work
[8] = test system: intraocular pressure; conditions: cited from earlier work; for ocular tension (intraocular pressure) reduction: clinical study
[9] = test system: pupil; conditions: 2% solution; cited from earlier work
[10] = test system: eye; conditions: cited from earlier work
[11] = test system: pupil; assay: Mydriatic study: pupil diameter difference between drug-treated and saline-treated eye in normal albino rabbits; format: in vivo, New Zealand male albino rabbits; conditions: drug eye vs saline eye difference
Protocol: Normal New Zealand male albino rabbits weighing from 2 to 3 kg. were used in the studies. The animals were placed in fiberglass restraining cages at least a half hour before the experiment and remained there throughout the test. The cages were located in a light and temperature controlled room. Pupil diameter was measured with a monostat vernier caliper held at a constant distance from observer and animal eyes. Drug solutions were formulated by dissolving the test agent in 0.9% saline solutions.
In the test procedure, a standard dose volume of 0.05 ml of the drug solution was applied to one eye and 0.9% saline was applied to the other eye of the same animal. The differences in the same animals between pupil diameter in millimeters of the eye with drug applied against the other eye with only saline instilled were recorded.
The pupillary dose response results are shown below in Table I.

[12] = Enzymatic hydrolysis in iris/ciliary body homogenate at 37° C.; format: in vitro ADME, New Zealand albino rabbits; conditions: Iris/ciliary body 10% homogenate, pH 7.4, 37° C.
Protocol: (§1) The stability of the ethyl succinyl derivative in isotonic saline buffer was determined in order to contrast the rates of hydrolysis of a chemical system with those of the ocular enzymatic systems. Ocular tissues were obtained from New Zealand albino rabbits. Homogenates were prepared in isotonic saline with a potassium phosphate buffer pH 7.4. High pressure liquid chromatography systems with spectrophotometric (254 nm) and electrochemical detection were used for determination.

[13] = Enzymatic hydrolysis in aqueous humor at 37° C.; format: in vitro ADME, New Zealand albino rabbits
Protocol: as §1

[14] = Enzymatic hydrolysis in corneal tissue homogenate at 37° C.; format: in vitro ADME, New Zealand albino rabbits; conditions: Corneal tissue 10% homogenate, pH 7.4, 37° C.
Protocol: as §1

[15] = Enzymatic hydrolysis in human plasma at 37° C.; format: in vitro ADME
[16] = Stability in isotonic saline buffer pH 7.4 at 37° C.; format: physicochemical; conditions: Isotonic saline pH 7.4, 37° C.
Protocol: as §1

- half-life [1]: 19.2 min
SMILES: CNCC(=O)c1ccc(OC(=O)CC(C)C)c(OC(=O)CC(C)C)c1 [R1 = R2 (6)]

- half-life [1]: 57.8 min
SMILES: CNCC(=O)c1ccc(OC(=O)C(C)(C)C)c(OC(=O)C(C)(C)C)c1 [R1 = R2 (7)]

SMILES: CNC[C@H](O)c1ccc(O)c(O)c1 [epinephrine]
- ocular distribution [2]: found only in the uveal (iris-ciliary body) tissues
- mydriasis (side effect) [3]: frequently causes mydriasis
- retinal maculopathy (side effect) [3]: sometimes retinal maculopathy

- half-life [1]: 8.55 min
SMILES: CCN(CC)C(=O)CCC(=O)Oc1ccc(C(=O)CNC)cc1OC(=O)CCC(=O)N(CC)CC [R1 = R2 (4)]

SMILES: CNCC(=O)c1ccc(OC(=O)C(C)(C)C)c(OC(=O)C(C)(C)C)c1 [dipivalyl]
- ocular sympathomimetic activity [4]: High ocular sympathomimetic activity
- potency relative to dipivalyl epinephrine [4]: more potent on a molar basis than the successful prodrug of epinephrine, dipivalyl epinephrine
- recovery of normal vision [5]: did not achieve faster recovery of normal vision

SMILES: CC(C)NCC(O)c1ccc(O)c(O)c1 (stereo not drawn) [Isoproterenol]
- intraocular pressure reduction ([6]; in vivo): satisfactorily reduced intraocular pressure
- mydriasis ([6]; in vivo): causing mydriasis
- serious side-effects ([6]; treatment of glaucoma): taachycardia, weakness, and palpatations were observed

SMILES: CNCC(=O)c1ccc(OC(=O)CC(C)C)c(OC(=O)CC(C)C)c1 [diisovaleryl]
- ocular sympathomimetic activity [4]: High ocular sympathomimetic activity
- potency relative to dipivalyl epinephrine [4]: more potent on a molar basis than the successful prodrug of epinephrine, dipivalyl epinephrine

SMILES: CCCC(=O)Oc1ccc(C(=O)CNC)cc1OC(=O)CCC [R1 = R2 (2)]
- half-life [1]: 2.13 min

SMILES: CC(C)NCC(=O)c1ccc(O)c(O)c1 [3,4-dihydroxy-2-(isopropylamino) acetophenone]
- mydriatic activity (side-effect) ([7]; in vivo): toxic, harmful or deleterious side-effect
- treatment of glaucoma ([7]; in vivo): successful treatment of glaucoma
- concentration needed to achieve the desired result ([7]; treatment of glaucoma): 3%

- half-life [1]: 2.96 min
SMILES: CCCCCC(=O)Oc1ccc(C(=O)CNC)cc1OC(=O)CCCCC [R1 = R2 (3)]

SMILES: CNC[C@H](O)c1ccc(O)c(O)c1 [1-adrenaline]
- ocular tension (intraocular pressure) reduction [8]: lowered ocular tension

SMILES: CNC[C@@H](O)c1ccc(O)c(O)c1 [d-adrenalin]
- ocular tension (intraocular pressure) reduction [8]: do not

SMILES: CNCC(=O)c1ccc(O)c(O)c1 [adrenalone]
- ocular distribution [2]: found in every compartment of the eye
- intraocular pressure reduction ([8]; 2% solution, patients suffering from glaucoma): did not cause any reduction in the intraocular pressure
- ocular tension (intraocular pressure) reduction [8]: do not
- mydriatic activity [9]: only a minimal level of mydriatic activity
- mydriasis ([10]; high concentrations): will not produce mydriasis
- reduction in the eye to adrenalin ([10]; topical administration): not reduced in the eye to the active adrenalin

- half-life [1]: 10.1 min
SMILES: CNCC(=O)c1ccc(OC(=O)C=Cc2ccccc2)c(OC(=O)C=Cc2ccccc2)c1 [R1 = R2 (5)]

- k (hydrolysis rate constant) [12]: 7.91 min^-1 × 10^-1
- half-life ([12]; rabbit): 0.88 min
- k (hydrolysis rate constant) [13]: 5.09 min^-1 × 10^-1
- half-life ([13]; rabbit): 1.36 min
- k (hydrolysis rate constant) [14]: 3.08 min^-1 × 10^-1
- half-life ([14]; rabbit): 2.25 min
- half-life [15]: 1.01 min
- k (hydrolysis rate constant) [15]: 6.68 min^-1 × 10^-1
- k (hydrolysis rate constant) [16]: 0.04 min^-1 × 10^-1
- half-life ([16]; isotonic saline buffer): 173 min
SMILES: CCOC(=O)CCC(=O)Oc1ccc(C(=O)CNC)cc1OC(=O)CCC(=O)OCC [0,0-di(ethylsuccinyl) adrenalone hydroperchlorate]
- Pupil diameter (X ± S.E.) ([11]; 1.0×10^-2 M, 10 minutes): 0.34 mm
- Pupil diameter (X ± S.E.) ([11]; 1.0×10^-2 M, 20 minutes): 0.43 mm
- Pupil diameter (X ± S.E.) ([11]; 1.0×10^-2 M, 30 minutes): 1.27 mm
- Pupil diameter (X ± S.E.) ([11]; 1.0×10^-2 M, 60 minutes): 1.42 mm
- Pupil diameter (X ± S.E.) ([11]; 1.0×10^-2 M, 120 minutes): 0.18 mm
- Pupil diameter (X ± S.E.) ([11]; 1.0×10^-2 M, 180 minutes): 0.37 mm
- Pupil diameter (X ± S.E.) ([11]; 1.5×10^-2 M, 10 minutes): 0.33 mm
- Pupil diameter (X ± S.E.) ([11]; 1.5×10^-2 M, 20 minutes): 0.80 mm
- Pupil diameter (X ± S.E.) ([11]; 1.5×10^-2 M, 30 minutes): 1.10 mm
- Pupil diameter (X ± S.E.) ([11]; 1.5×10^-2 M, 60 minutes): 2.13 mm
- Pupil diameter (X ± S.E.) ([11]; 1.5×10^-2 M, 120 minutes): 0.34 mm
- Pupil diameter (X ± S.E.) ([11]; 1.5×10^-2 M, 180 minutes): 0.16 mm
- Pupil diameter (X ± S.E.) ([11]; 2.0×10^-2 M, 10 minutes): 0.69 mm
- Pupil diameter (X ± S.E.) ([11]; 2.0×10^-2 M, 20 minutes): 1.12 mm
- Pupil diameter (X ± S.E.) ([11]; 2.0×10^-2 M, 30 minutes): 1.64 mm
- Pupil diameter (X ± S.E.) ([11]; 2.0×10^-2 M, 60 minutes): 3.11 mm
- Pupil diameter (X ± S.E.) ([11]; 2.0×10^-2 M, 120 minutes): 0.79 mm
- Pupil diameter (X ± S.E.) ([11]; 2.0×10^-2 M, 180 minutes): 0.31 mm
- Pupil diameter (X ± S.E.) ([11]; 2.4×10^-3 M, 10 minutes): 0.15 mm
- Pupil diameter (X ± S.E.) ([11]; 2.4×10^-3 M, 20 minutes): 0.18 mm
- Pupil diameter (X ± S.E.) ([11]; 2.4×10^-3 M, 30 minutes): 0.20 mm
- Pupil diameter (X ± S.E.) ([11]; 2.4×10^-3 M, 60 minutes): 0.30 mm
- Pupil diameter (X ± S.E.) ([11]; 2.4×10^-3 M, 120 minutes): 0.08 mm
- Pupil diameter (X ± S.E.) ([11]; 2.4×10^-3 M, 180 minutes): 0.11 mm
- Pupil diameter (X ± S.E.) ([11]; 2.5×10^-2 M, 10 minutes): 0.44 mm
- Pupil diameter (X ± S.E.) ([11]; 2.5×10^-2 M, 20 minutes): 1.99 mm
- Pupil diameter (X ± S.E.) ([11]; 2.5×10^-2 M, 30 minutes): 2.90 mm
- Pupil diameter (X ± S.E.) ([11]; 2.5×10^-2 M, 60 minutes): 3.29 mm
- Pupil diameter (X ± S.E.) ([11]; 2.5×10^-2 M, 120 minutes): 1.66 mm
- Pupil diameter (X ± S.E.) ([11]; 2.5×10^-2 M, 180 minutes): 0.22 mm
- Pupil diameter (X ± S.E.) ([11]; 5.0×10^-3 M, 10 minutes): 0.20 mm
- Pupil diameter (X ± S.E.) ([11]; 5.0×10^-3 M, 20 minutes): 0.56 mm
- Pupil diameter (X ± S.E.) ([11]; 5.0×10^-3 M, 30 minutes): 0.82 mm
- Pupil diameter (X ± S.E.) ([11]; 5.0×10^-3 M, 60 minutes): 0.78 mm
- Pupil diameter (X ± S.E.) ([11]; 5.0×10^-3 M, 120 minutes): 0.46 mm
- Pupil diameter (X ± S.E.) ([11]; 5.0×10^-3 M, 180 minutes): 0.58 mm

- half-life [1]: 1.01 min
SMILES: CCOC(=O)CCC(=O)Oc1ccc(C(=O)CNC)cc1OC(=O)CCC(=O)OCC [R1 = R2 (1)]
